Target: epidermal growth factor receptor (EGFR) tyrosine kinase (Homo sapiens, UniProt P00533)
Test: fluorescence tyrosine kinase assay (Antibody Beacon detection), dose-response
Type: biochemical

epidermal growth factor receptor (EGFR) tyrosine kinase, sequence (P00533 25-1210): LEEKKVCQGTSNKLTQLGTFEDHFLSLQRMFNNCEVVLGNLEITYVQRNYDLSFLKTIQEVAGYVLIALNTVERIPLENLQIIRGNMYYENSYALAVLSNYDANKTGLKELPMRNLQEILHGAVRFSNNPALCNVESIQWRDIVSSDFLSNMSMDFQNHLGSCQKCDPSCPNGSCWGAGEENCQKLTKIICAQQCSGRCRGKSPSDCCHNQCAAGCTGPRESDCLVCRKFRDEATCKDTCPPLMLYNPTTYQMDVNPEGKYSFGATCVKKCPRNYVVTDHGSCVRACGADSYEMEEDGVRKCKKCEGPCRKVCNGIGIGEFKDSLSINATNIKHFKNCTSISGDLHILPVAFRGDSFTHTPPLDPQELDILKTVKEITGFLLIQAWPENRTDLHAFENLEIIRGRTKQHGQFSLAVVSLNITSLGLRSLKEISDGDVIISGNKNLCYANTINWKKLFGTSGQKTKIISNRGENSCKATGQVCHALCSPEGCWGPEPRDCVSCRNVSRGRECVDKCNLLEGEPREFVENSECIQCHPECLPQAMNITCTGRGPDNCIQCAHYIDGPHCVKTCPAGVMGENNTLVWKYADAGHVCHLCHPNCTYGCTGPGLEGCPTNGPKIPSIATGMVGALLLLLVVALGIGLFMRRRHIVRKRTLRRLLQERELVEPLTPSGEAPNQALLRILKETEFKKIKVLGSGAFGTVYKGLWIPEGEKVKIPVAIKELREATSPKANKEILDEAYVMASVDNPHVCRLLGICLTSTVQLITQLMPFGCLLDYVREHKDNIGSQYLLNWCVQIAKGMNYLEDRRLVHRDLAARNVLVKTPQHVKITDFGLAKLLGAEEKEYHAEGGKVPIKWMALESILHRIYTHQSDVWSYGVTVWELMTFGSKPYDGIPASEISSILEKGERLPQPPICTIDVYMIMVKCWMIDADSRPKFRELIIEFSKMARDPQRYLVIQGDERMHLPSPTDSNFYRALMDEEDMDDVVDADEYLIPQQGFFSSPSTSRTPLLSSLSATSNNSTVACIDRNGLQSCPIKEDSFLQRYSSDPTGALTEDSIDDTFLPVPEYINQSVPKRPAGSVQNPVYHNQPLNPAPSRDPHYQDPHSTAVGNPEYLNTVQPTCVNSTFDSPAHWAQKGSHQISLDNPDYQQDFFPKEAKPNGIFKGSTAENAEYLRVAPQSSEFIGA

For `O=c1c2cccc(O)c2oc2cccc(O)c12` [compound 1, 1,5-dihydroxyxanthone], which IC50 is on record?
The IC50 was 0.0903 µM.

Which IC50 does the source give for `O=c1c2cc(O)ccc2oc2cccc(O)c12` [compound 2, 1,7-dihydroxyxanthone] here?
Its IC50 is 0.223 µM.

From PMC6271254, “Antibacterial and EGFR-Tyrosine Kinase Inhibitory Activities of Polyhydroxylated Xanthones from Garcinia succifolia” (Molecules, 2014)
